Patent US20140314854A1, “METHODS AND COMPOSITIONS FOR RNAi-BASED CANCER TREATMENT” (Silenseed Ltd., priority 2013, published 2014)

Key:
[1] = test system: Panc1 cells; assay: Cell viability by Methylene Blue test, siRNA alone and with Gemzar; format: cell-based, human; conditions: 72 h; 1 hr of treatment with 10 μM Gemzar after transfection
Experimental: FIG. 15. Gemzar® enhances siG12D-DDD effect. Panc1 cells were transfected using Lipofectamine™ with unmodified and modified siG12D and a scrambled (non-targeting) siRNA control molecule or were mock transfected (no siRNA). Cell viability was assessed 72 hrs post-transfection by the Methylene Blue (MB) test. Additional groups were transfected as described above, followed by 1 hr of treatment with 10 μM Gemzar®. The numbers 1-4 in the last column relate to the percent of inhibition of cellular growth, wherein the inhibition seen with the unmodified siRNA was assigned the value of 100%. 4, 3, 2, and 1 refer respectively to 75-100%, 50-75%, 25-50%, and 0-25% of the inhibition seen with the unmodified siRNA.
Experimental procedure: Panc1 cells were transfected using Lipofectamine™ with unmodified and modified siG12D and a scrambled (non-targeting) siRNA control molecule or were mock transfected (no siRNA). Cell viability was assessed 72 hrs post-transfection by the Methylene Blue (MB) test. Additional groups were transfected as described above, followed by 1 hr of treatment with 10 μM Gemzar®. At the exemplary time point of 72 h, Gemzar® enhanced the effect of siG12D by nearly 10% (FIG. 15). […] Other time points, for example 48h, 72 h, 96 h and 120 h, may be utilized in additional studies.

[2] = test system: Panc1 cells; format: cell-based, human
Experimental: FIG. 18. Chart showing viability of Panc1 cells. Vertical axis: viability as a percentage of the viability of mock-transfected cells, 72 hours following transfection with the indicated siRNA. Dotted line indicates 50% reduction in viability. For all the differences, p<0.05 relative to the mock-transfected cells.
The effect of siRNA-mediated down-regulation of EMT-related genes on viability of Panc1 cancer cells was measured as follows: siRNAs targeting the indicated genes, namely SLUG (SNAI2), SNAI1 TWIST, Zeb1, Zeb2, Goosecoid, and E12 (TCF3), were designed and synthetized by IDT-Syntezza, using 2 different siRNA's per target (Table 3). Panc1 cells were transfected with the siRNAs using Lipofectamine®. 72 hrs post-transfection, cell viability was tested by Methylene blue (MB) assay. Gemzar® was used as a positive control for cell killing.

[3] = test system: P-Akt; assay: Western blot of KRAS downstream effector P-Akt; format: cell-based, human; conditions: 36 hrs after transfection, normalized to β-actin
Text: (§1) FIG. 19. Treatment with anti-k-ras siRNA reduces levels of downstream effector proteins. Panc1 cells were left untreated (u/t) or transiently transfected with siG12D, non-targeting scrambled siRNA (si-scr) or mock transfected. A. Shown are representative blots of KRAS, P-Erk, P-Akt, and β-actin. B. Quantitation of protein expression, expressed as average±S.E.M. Numbers were normalized to the level of β-actin, then the resulting number was normalized to the expression in scrambled siRNA-transfected cells, which was set as 100%. Student's t-test was used to calculate(p) compared to mock-transfected cells.
(§2) To confirm the specific action of siG12D on the K-ras signaling pathway, KRAS, level of activation of the KRAS downstream effectors ERK and Akt was measured following treatment with siG12D. […] 36 hrs after transfection, cells were lysed and relative levels of KRAS, P-Erk and P-Akt proteins were assessed by Western blot analysis. […]
(§3) Western blot assays were carried by homogenizing cells in lysis buffer A (0.25M sucrose, 20 mM Tris pH 7.6, 1.5 mM MgCl2, 10% glycerol, 1 mM EDTA and “cOmplete mini” protein inhibitor cocktail (Roche Diagnostics)), incubated on ice for 10 min, centrifuged at 12,000 rpm for 15 min at 4° C., and supernatants were collected. […] Results are expressed as ratio of protein of interest/β-actin to correct for amount of protein loaded in each sample.

[4] = test system: K-ras mRNA; conditions: read-out: K-ras mRNA levels, half-maximal inhibitory concentration (IC50); Panc1 cells transfected; Real-Time PCR, HPRT and UBC endogenous controls
Experimental: Panc1 cells, human pancreatic carcinoma cells that carry the […] in the K-ras gene, were mock-transfected or transfected with siG12D or control scrambled siRNA (si-scr). The relative K-ras mRNA levels were assessed by Real-Time PCR, with Hypoxantine PhosphoRybosyl Transferase (HPRT) and Ubiquitin C (UBC) used as endogenous controls.

[5] = test system: normal mice; assay: Toxicity study of LODER-driven siRNA in normal mice; format: in vivo; conditions: intraperitoneally injected
Experimental: (§4) To study the toxic potential of the LODER-driven siRNA, we compared the effect of the siG12D LODER (16, 32 and 64 μg siG12D/kg weight) to that of the empty LODER and to sham-operated or untreated animals. LODERs were implanted into the pancreas of normal mice and rats, both males and females of both species. In parallel, the same and higher doses of siG12D were intraperitoneally injected into normal mice and rats (16, 160 and 320 μg siG12D/kg weight). The duration of this study was 2 weeks in mice and 8 weeks in rats. […] Based on the lack of adverse reaction following siRNA treatment, the maximum dose of 0.32 mg siRNA/kg body weight was considered as not constituting an acute toxicity risk.

[6] = test system: PancO2 cell; assay: PancO2 cell growth in vitro; format: cell-based, mouse
[7] = test system: P-Erk; assay: Western blot of KRAS downstream effector P-Erk; format: cell-based, human; conditions: 36 hrs after transfection, normalized to β-actin
Text: as §1, §2, §3

[8] = test system: Panc1 cells; assay: Migration assay (modified Boyden chamber); format: cell-based, human; conditions: transfected cells, relative to untreated cells
[9] = test system: Panc-1 cells; assay: Scratch assay; format: cell-based, human; conditions: after 24 hours, light microscopy
Experimental: FIG. 7. siG12D reduces EMT in Panc1 cells. A. Migration assay. Panc-1 cells were transfected with siG12D or non-targeting control (scrambled) or were treated with TGFβ (positive control). The migration ability was assessed using a modified Boyden chamber assay. The percentage of migrated cells relative to untreated cells is presented. B. Scratch assay. Panc-1 cells were mock-transfected or transfected in vitro with scrambled siRNA or siG12D, then were seeded in 6 W plates. After 24 hours, the cells were reseeded in 24 W plates to form a confluent culture. One day after reseeding, the cells were scratched with a plastic tip. […]
FIG. 8. Light microscopy images of migration of siG12D-DDD treated cells in a scratch assay, showing the inhibitory effect of siG12D on cellular migration.
In order to study the effects of siG12D on the EMT process and its consequent increased cellular migration and motility, we conducted a series of experiments in which we examined different aspects of this process. We analyzed the migration characteristics of Panc1 cells following transfection with siG12D or scrambled siRNA, using the scratch and transwell-migration assays. TGF-β was used as a positive control. […] To test migration through a scratch assay. […]

[10] = test system: Zeb1, Slug, E-Cadherin; assay: Expression of genes characteristic of EMT; format: cell-based, human; conditions: in vitro, normalized to the untreated cells
Text: FIG. 9. Effect of the siG12DDDD on expression levels of metastasis-facilitating genes. Expression levels are normalized to the untreated cells.
Treatment of siG12D in vitro was followed by measurement of genes whose expression (high or low) is characteristic of EMT.

[11] = test system: normal rats; assay: Toxicity study of LODER-driven siRNA in normal rats; format: in vivo; conditions: intraperitoneally injected
Experimental: as §4

[12] = test system: Akt; assay: Orthotopic Panc1-LUC tumors, Akt immunohistochemistry; format: in vivo, human; conditions: 39 days post-treatment, IH
Experimental: For this purpose, Panc1-LUC or Capan1-LUC cells were injected into the tail of the mouse pancreas via an incision. Tumor development was assessed by in vivo Luciferase activity. […] Two LODERs were stitched to the pancreatic tumor via a laparotomy.
Here, tumor tissues were tested from mice bearing pancreatic Panc1-LUC-derived tumors from 4 treatment groups: untreated, injected with siG12D or implanted with empty LODERs or siG12D LODERs. Thirty nine days post-treatment, we performed IH analysis of tumor tissues for Akt and ERK.

In the case of Nc1ccn([C@@H]2O[C@H](CO)[C@@H](O)C2(F)F)c(=O)n1 [Gemzar®, 2′,2′-difluorodeoxycytidine], the “enhancement of the effect of siG12D on cell viability” value [1] is reported as roughly 10%.

“TCF3-1: siRNA targeting E12 (TCF3); sense cuccuggacuucagcaugadTdT, antisense ucaugcugaaguccaggagdTdT; SEQ ID No's 131-132 (sense CUCCUGGACUUCAGCAUGATT; antisense UCAUGCUGAAGUCCAGGAGTT; DNA at 20, 21, other sugars and backbone not given here)” was tested, and the reduction in viability [2] was “greater than 50%”.

“SNAI1-2: siRNA targeting SNAI1; sense augcacauccgaagccacadTdT, antisense uguggcuucggaugugcaudTdT; SEQ ID No's 124-125” was tested, and the reduction in viability [2] was “greater than 50%”.

For “Zeb1-2: siRNA targeting Zeb1; sense cagguguaagcgcagaaagdTdT, antisense cuuucugcgcuuacaccugdTdT; SEQ ID No's 112-113 (sense CAGGUGUAAGCGCAGAAAGTT; antisense CUUUCUGCGCUUACACCUGTT; DNA at 20, 21, other sugars and backbone not given here)”, the reduction in viability [2] was roughly 50%.

For “TWIST-2: siRNA targeting TWIST; sense ggugugcguccagccguugdTdT, antisense caacggcuggacgcacaccdTdT; SEQ ID No's 108-109 (sense GGUGUGCGUCCAGCCGUUGTT; antisense CAACGGCUGGACGCACACCTT; DNA at 20, 21, other sugars and backbone not given here)”, the reduction in viability [2] was “greater than 50%”.

For “SNAI2-2: siRNA targeting SLUG (SNAI2); sense cuggucaagaagcauuucadTdT, antisense ugaaaugcuucuugaccagdTdT; SEQ ID No's 104-105 (sense CUGGUCAAGAAGCAUUUCATT; antisense UGAAAUGCUUCUUGACCAGTT; DNA at 20, 21, other sugars and backbone not given here)”, the reduction in viability [2] was roughly 50%.

“siG12D: siRNA against K-ras G12D; sense GUUGGAGCUGAUGGCGUAGdTdT, antisense CUACGCCAUCAGCUCCAACdTdT (SEQ ID No: 41-42) (sense GUUGGAGCUGAUGGCGUAGTT; antisense CUACGCCAUCAGCUCCAACTT; DNA at 20, 21, other sugars and backbone not given here)” was tested, and the “level of P-Akt” value [3] was “decreased”, the IC50 [4] was 0.067 nM and the “maximum dose considered as not constituting an acute toxicity risk” value [5] was 0.32 mg siRNA/kg body weight. The reduction in viability [2] was roughly 50%, the PancO2 cell growth [6] was “inhibited PancO2 cell growth to a similar extent as Panc1 cells” and the “level of P-Erk” value [7] was “decreased”. The “inhibition of Panc1 migration” value [8] was “more than 30%”, the “migration in scratch assay” value [9] was “barely migrated” and the “expression of epithelial genes (E-Cadherin)” value [10] was “augmented expression”. The “expression of mesenchymal genes (Zeb1 and Slug)” value [10] was “reduced expression”, the “maximum dose considered as not constituting an acute toxicity risk” value [11] was 0.32 mg siRNA/kg body weight and the Akt phosphorylation [12] was “induced”.

Compound “Goosecoid-1: siRNA targeting Goosecoid; sense agcauguucagcaucgacadTdT, antisense ugucgaugcugaacaugcudTdT; SEQ ID No's 127-128 (sense AGCAUGUUCAGCAUCGACATT; antisense UGUCGAUGCUGAACAUGCUTT; DNA at 20, 21, other sugars and backbone not given here)” has a reduction in viability [2] of roughly 50%.
